Assay results: article PMC5519634, “Effects of 4(1H)-quinolinone derivative, a novel non-nucleotide allosteric purinergic P2Y2 agonist, on cardiomyocytes in neonatal rats” (Scientific Reports, 2017)
Values belong to the compound of their own block, whether it stands above or below them.

Columns and labels:
[1] = tested on: empty vector-transfected parental 1321N1 cells; assay: Ca2+ mobilization in empty vector-transfected parental 1321N1 cells; format: cell-based, human; details: 10 μM; data not shown
[2] = tested on: Nr4a1, Nr4a2, Nr4a3, c-fos mRNA in NRCMs; assay: mRNA expression analysis of Nr4a1, Nr4a2, Nr4a3 and c-fos in NRCMs; format: cell-based, rat; details: for induction of Nr4a1 mRNA at 2 h versus isoproterenol alone: 30 μM Compound 89 or 100 μM ATP in the presence of 10 μM isoproterenol
Description: Neonatal rat cardiomyocytes were seeded in a collagen I-coated 96-well plate, then cultured and maintained for a week before the ligand stimulation assay. […] After stimulation, cDNA samples were synthesized from lysates using TaqMan Gene Expression Cells-to-Ct kits (Thermo Fisher Scientific) according to the manufacturer’s instructions, followed by quantitative real-time polymerase chain reaction analysis using a Prism 7900HT sequence detector (Thermo Fisher Scientific). Thermal cycling parameters were 2 min at 50 °C and 10 min at 95 °C, followed by 40 cycles at 95 °C for 15 sec and 60 °C for 1 min. The mRNA levels were analysed with the comparative Ct method (2^−ΔΔCt) using Rplp0 as the housekeeping gene. The TaqMan Gene Expression assays (Thermo Fisher Scientific) used herein were as follows: Rn01533237_m1 (Nr4a1), Rn00570936_m1 (Nr4a2), Rn01354012_m1 (Nr4a3), Rn02396759_m1 (c-fos), and Rn03302271_gH (Rplp0).

[3] = tested on: neonatal rat cardiomyocytes (NRCMs); assay: Isoproterenol-induced cardiac hypertrophy in NRCMs; format: cell-based; details: 10 μM isoproterenol
Description: Neonatal rat cardiomyocytes were seeded in a 96-well collagen I plate at a density of 5000 cells/well. They were incubated overnight and then transferred to a serum-free medium for one day. Next, the cells were treated with the indicated concentrations of compounds and 10 μM isoproterenol, and then incubated for 2 days. To quantify cardiomyocyte hypertrophy via filamentous actin staining, NRCMs were fixed with 4% paraformaldehyde (Wako) and permeabilized with 0.1% Triton X-100 (MP Biomedicals, France), followed by blocking with 1% bovine serum albumin (Wako) and staining with 2 μM phalloidin–fluorescein isothiocyanate (phalloidin-FITC; Sigma-Aldrich, Japan) and 10 μM Hoechst 33258 (Dojindo). Quantification of FITC-fluorescence intensity and cell number was performed using an IN Cell Analyzer 6000 (GE Healthcare Japan). The signals from obtained images were quantitated by means of a customized image analysis algorithm using the IN Cell Developer Toolbox (GE Healthcare Japan). Hypertrophic scores were calculated as the product of FITC-fluorescence intensity and cell area per cell as programmed by GE Healthcare technical support experts.

[4] = target: T1, P2Y2 in neonatal rat cardiomyocytes (NRCMs) (Rattus norvegicus, UniProt P41232); assay: cell-based
mouse P2Y2 receptors = target: T2, mouse P2Y2 receptors (Mus musculus, UniProt P35383); assay: FLIPR Ca2+ mobilization assay in mP2Y2-1321N1 cells; format: cell-based
T2 construct: expressed in transfected cells

human P2Y1 receptor = target: T3, human P2Y1 receptor (Homo sapiens, UniProt P47900); assay: FLIPR Ca2+ mobilization assay in transiently hP2Y1-expressing 1321N1 cells; format: cell-based; details: at up to 30 µM
T3 construct: expressed in transfected cells; host or cells: 1321N1 human astrocytoma cells, pcDNA3.1(+) plasmid, transient

human P2Y4 receptor = target: T4, human P2Y4 receptor (Homo sapiens, UniProt P51582); assay: FLIPR Ca2+ mobilization assay in transiently hP2Y4-expressing 1321N1 cells; format: cell-based; details: at up to 30 µM
T4 construct: expressed in transfected cells; host or cells: 1321N1 human astrocytoma cells, pcDNA3.1(+) plasmid, transient

human P2Y6 receptor = target: T5, human P2Y6 receptor (Homo sapiens, UniProt Q15077); assay: FLIPR Ca2+ mobilization assay in transiently hP2Y6-expressing 1321N1 cells; format: cell-based; details: at up to 30 µM
T5 construct: expressed in transfected cells; host or cells: 1321N1 human astrocytoma cells, pcDNA3.1(+) plasmid, transient

human P2Y11 receptor = target: T6, human P2Y11 receptor (Homo sapiens, UniProt Q96G91); assay: FLIPR Ca2+ mobilization assay in transiently hP2Y11-expressing 1321N1 cells; format: cell-based; details: at up to 30 µM
T6 construct: expressed in transfected cells; host or cells: 1321N1 human astrocytoma cells, pcDNA3.1(+) plasmid, transient
T6 sequence (Q96G91 1-374): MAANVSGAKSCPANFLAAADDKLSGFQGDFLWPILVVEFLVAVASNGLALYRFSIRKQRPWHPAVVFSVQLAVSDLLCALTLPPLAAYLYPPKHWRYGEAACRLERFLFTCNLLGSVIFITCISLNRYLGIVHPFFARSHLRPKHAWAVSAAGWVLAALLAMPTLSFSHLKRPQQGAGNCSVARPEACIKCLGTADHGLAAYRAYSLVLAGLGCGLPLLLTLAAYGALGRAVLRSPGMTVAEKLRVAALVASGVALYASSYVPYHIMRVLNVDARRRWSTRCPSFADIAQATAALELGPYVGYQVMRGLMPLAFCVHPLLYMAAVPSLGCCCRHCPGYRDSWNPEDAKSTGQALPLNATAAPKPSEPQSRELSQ

human P2Y12 receptor = target: T7, human P2Y12 receptor (Homo sapiens, UniProt Q9H244); assay: cAMP accumulation assay in hP2Y12-1321N1 cells; format: cell-based; details: at up to 30 µM
T7 construct: expressed in transfected cells

β-adrenergic receptor = assay: cAMP signalling in parental 1321N1 cells; format: cell-based, human
[5] = target: T1, P2Y2 in neonatal rat cardiomyocytes (NRCMs); details: without ATP
human P2Y2 receptors = human P2Y2 receptors (Homo sapiens, UniProt P41231); assay: cell-based
[6] = read-out: extrapolated maximum efficacy with respect to 10 μM ATP

T1 sequence (P41232 whole entry): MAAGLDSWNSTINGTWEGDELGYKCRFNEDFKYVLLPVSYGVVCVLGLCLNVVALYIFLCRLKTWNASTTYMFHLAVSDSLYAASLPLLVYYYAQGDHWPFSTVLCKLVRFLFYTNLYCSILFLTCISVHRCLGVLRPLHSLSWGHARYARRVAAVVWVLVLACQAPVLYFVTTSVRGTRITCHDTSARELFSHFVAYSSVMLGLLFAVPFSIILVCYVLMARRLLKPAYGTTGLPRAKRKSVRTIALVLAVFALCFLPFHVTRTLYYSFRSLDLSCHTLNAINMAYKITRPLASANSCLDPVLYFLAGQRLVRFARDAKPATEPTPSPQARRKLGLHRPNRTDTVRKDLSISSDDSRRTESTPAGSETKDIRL
human P2Y2 receptors, sequence (P41231 whole entry): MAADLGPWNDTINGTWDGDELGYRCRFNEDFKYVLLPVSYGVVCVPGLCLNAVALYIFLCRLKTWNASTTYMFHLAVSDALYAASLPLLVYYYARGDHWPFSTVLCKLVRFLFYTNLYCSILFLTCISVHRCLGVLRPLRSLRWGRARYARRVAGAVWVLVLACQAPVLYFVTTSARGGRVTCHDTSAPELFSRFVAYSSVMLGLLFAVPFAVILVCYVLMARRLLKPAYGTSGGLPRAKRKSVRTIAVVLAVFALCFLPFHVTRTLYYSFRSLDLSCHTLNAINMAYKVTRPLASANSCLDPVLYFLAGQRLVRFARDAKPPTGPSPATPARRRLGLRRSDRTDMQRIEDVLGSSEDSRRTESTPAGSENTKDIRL
T2 sequence (P35383 whole entry): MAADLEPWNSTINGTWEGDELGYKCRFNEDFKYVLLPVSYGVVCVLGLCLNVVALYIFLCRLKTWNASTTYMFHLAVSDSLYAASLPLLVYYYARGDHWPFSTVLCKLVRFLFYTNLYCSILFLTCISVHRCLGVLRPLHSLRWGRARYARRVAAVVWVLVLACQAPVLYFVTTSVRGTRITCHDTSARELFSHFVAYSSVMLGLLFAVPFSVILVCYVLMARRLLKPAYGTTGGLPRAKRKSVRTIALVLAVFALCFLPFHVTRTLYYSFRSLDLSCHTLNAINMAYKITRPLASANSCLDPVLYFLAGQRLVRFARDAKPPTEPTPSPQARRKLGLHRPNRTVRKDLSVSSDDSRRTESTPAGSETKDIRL
T4 sequence (P51582 whole entry): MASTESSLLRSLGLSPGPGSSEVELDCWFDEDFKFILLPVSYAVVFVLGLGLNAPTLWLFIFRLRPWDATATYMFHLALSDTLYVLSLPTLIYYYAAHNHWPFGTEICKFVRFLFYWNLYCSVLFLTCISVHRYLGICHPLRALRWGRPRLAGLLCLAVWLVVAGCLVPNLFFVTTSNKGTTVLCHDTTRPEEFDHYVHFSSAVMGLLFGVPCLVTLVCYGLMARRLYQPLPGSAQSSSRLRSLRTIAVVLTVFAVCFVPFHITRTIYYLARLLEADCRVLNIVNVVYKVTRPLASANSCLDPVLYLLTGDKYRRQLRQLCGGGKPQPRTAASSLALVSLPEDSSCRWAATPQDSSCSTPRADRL
T3 sequence (P47900 whole entry): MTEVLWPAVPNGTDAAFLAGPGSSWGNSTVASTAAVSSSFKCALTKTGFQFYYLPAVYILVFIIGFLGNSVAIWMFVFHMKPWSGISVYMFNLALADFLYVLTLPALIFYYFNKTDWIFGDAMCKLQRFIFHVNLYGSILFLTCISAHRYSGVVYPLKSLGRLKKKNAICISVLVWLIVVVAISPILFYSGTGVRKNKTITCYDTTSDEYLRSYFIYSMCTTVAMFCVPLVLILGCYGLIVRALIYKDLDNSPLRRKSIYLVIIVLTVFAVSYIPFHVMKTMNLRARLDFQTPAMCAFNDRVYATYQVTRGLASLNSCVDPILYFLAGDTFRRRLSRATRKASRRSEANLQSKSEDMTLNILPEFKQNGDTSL
T7 sequence (Q9H244 whole entry): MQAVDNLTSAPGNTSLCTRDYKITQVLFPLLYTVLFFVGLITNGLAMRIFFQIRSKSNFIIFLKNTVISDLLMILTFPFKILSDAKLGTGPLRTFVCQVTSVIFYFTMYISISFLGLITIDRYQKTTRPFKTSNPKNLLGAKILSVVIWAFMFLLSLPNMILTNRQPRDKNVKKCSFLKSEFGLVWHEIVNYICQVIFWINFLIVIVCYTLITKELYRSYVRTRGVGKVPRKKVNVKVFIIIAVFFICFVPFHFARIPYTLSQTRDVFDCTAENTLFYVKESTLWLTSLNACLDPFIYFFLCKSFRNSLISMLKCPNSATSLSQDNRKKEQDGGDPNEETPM
T5 sequence (Q15077 whole entry): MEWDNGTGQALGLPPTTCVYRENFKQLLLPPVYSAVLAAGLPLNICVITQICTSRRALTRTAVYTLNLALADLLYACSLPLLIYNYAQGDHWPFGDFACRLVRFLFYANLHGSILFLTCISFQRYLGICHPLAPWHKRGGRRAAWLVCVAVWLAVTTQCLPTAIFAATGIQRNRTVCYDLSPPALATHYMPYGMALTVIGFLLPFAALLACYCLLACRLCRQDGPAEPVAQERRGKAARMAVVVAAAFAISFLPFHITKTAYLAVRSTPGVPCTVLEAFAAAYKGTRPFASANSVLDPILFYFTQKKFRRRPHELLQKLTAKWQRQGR

SMILES: Nc1ncnc2c1ncn2[C@@H]1O[C@H](COP(=O)(O)OP(=O)(O)O)[C@@H](O)[C@H]1O [ADP, adenosine-5′-diphosphate]
activity in empty vector-transfected parental 1321N1 cells [1]: lacked activity

SMILES: Nc1ncnc2c1ncn2[C@@H]1O[C@H](COP(=O)(O)OP(=O)(O)OP(=O)(O)O)[C@@H](O)[C@H]1O [ATP, adenosine-5′-triphosphate, reference compound]
expression of all Nr4a genes ([2]; 10 μM, steadily after 30 min): increased | induction of Nr4a1 mRNA at 2 h versus isoproterenol alone [2]: did not affect induction | effect on isoproterenol-induced cardiac hypertrophy (hypertrophic score) ([3]; 10 and 100 μM, P = 0.568): no significant effects | activity in empty vector-transfected parental 1321N1 cells [1]: lacked activity | EC50 ([4]; EC50 for ATP, NRCMs, in the absence of Compound 89): 2600 nM

Emax (mouse P2Y2 receptors; [6]): 50.9% | EC50 (mouse P2Y2 receptors; stably-expressing mP2Y2-1321N1 cells (Fig. 1b), read-out: EC50 (potency), agonistic activity): 2700 nM | agonistic activity against hP2Y1 (human P2Y1 receptor): lacked agonistic activity | agonistic activity against hP2Y4 (human P2Y4 receptor): lacked agonistic activity | agonistic activity against hP2Y6 (human P2Y6 receptor): lacked agonistic activity | agonistic activity against hP2Y11 (human P2Y11 receptor): lacked agonistic activity | agonistic activity against hP2Y12 (human P2Y12 receptor): lacked agonistic activity | intrinsic agonistic activity [5]: no intrinsic agonistic activity | EC50 (human P2Y2 receptors; EC50 (potency), agonistic activity, transiently-expressing hP2Y2-1321N1 cells (Fig. 1b)): 10500 nM | EC50 (human P2Y2 receptors; EC50 for Compound 89, hP2Y2 stably-expressing 1321N1 cells, in the absence of ATP): 53900 nM | EC50 (human P2Y2 receptors; EC50 for Compound 89, hP2Y2 stably-expressing 1321N1 cells, in the presence of 10 nM ATP): 2500 nM | Emax (human P2Y2 receptors; [6]): 65.8% | EC50 ([4]; EC50 for Compound 89, NRCMs, in the presence of 1 μM ATP): 1300 nM | EC50 ([4]; EC50 for Compound 89, NRCMs, in the presence of 30 μM ATP): 110 nM
SMILES: CCN(Cc1ccc(F)cc1)Cc1cc(=O)c2ccc(C)c(C)c2[nH]1 [Compound 89, 2-((ethyl(4-fluorobenzyl)amino)methyl)-7,8-dimethylquinolin-4(1H)-one]
induction of Nr4a1 mRNA at 2 h versus isoproterenol alone [2]: greater | effect on ATP-induced gene expression changes ([2]; co-administration at 10 and 30 μM with ATP, concentration-dependent): enhanced | changes in gene expression (Nr4a1, Nr4a2, Nr4a3, c-fos) by compound alone ([2]; without ATP, up to 90 min): did not induce any changes in gene expression | attenuation of hypertrophy after 48 h of treatment ([3]; 30 μM): Complete attenuation | effect on isoproterenol-induced cardiac hypertrophy (hypertrophic score) ([3]; 1 to 30 μM, concentration-dependent): attenuated | effect on β-adrenergic receptor-mediated cAMP signalling (β-adrenergic receptor): does not affect

SMILES: O=c1ccn([C@@H]2O[C@H](COP(=O)(O)OP(=O)(O)O)[C@@H](O)[C@H]2O)c(=O)[nH]1 [UDP, uridine-5′-diphosphate]
activity in empty vector-transfected parental 1321N1 cells [1]: lacked activity

SMILES: O=c1ccn([C@@H]2O[C@H](COP(=O)(O)OP(=O)(O)OP(=O)(O)O)[C@@H](O)[C@H]2O)c(=O)[nH]1 [UTP, uridine-5′-triphosphate]
activity in empty vector-transfected parental 1321N1 cells [1]: lacked activity

SMILES: CC(C)NCC(O)c1ccc(O)c(O)c1 (centres unmarked) [isoproterenol, reference compound]
induction of Nr4a1 mRNA at 2 h versus vehicle ([2]; 10 μM isoproterenol, P = 5 × 10^−4): significantly induced
